Assay results: patent US10376555B2, “Identification of cyclic peptide agonists of galanin receptor 2 and 3 guided by spexin solution structure” (Hong Kong Baptist University, priority 2017, dated 2019)
Entries after “also recorded” stand apart in the source; their conditions may differ. Positions of bridges follow the written chain, without caps; N, C: chain ends. Residues, ends and D or L forms follow the SMILES beside them.

Columns and labels:
hGalR1 = biological target: T1, hGalR1 (Homo sapiens, UniProt P47211); experiment: SRE-Luc receptor activation assay, hGalR1; assay type: cell-based; settings: for hGalR1 EC50: HEK293 cells transfected with hGalR1, Gqi, SRE-Luc, 6 h treatment, full-dose; for hGalR1 Emax: Relative to hGAL Emax
T1 sequence (P47211 1-349): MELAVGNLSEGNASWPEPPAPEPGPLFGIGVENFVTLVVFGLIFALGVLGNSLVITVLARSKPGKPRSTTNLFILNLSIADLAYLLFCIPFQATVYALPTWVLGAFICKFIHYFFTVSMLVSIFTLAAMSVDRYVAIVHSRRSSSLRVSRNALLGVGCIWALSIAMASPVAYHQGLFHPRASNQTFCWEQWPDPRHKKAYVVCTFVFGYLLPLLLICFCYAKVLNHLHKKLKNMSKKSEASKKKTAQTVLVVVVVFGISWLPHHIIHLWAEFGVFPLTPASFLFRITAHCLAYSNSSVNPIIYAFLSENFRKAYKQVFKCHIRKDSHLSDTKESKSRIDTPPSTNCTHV

hGalR2 = biological target: T2, hGalR2 (Homo sapiens, UniProt O43603); experiment: SRE-Luc receptor activation assay, hGalR2; assay type: cell-based; settings: for hGalR2 Emax: Relative to hSPX Emax; for EC50: HEK293 cells transfected with hGalR2, Gqi, SRE-Luc, 6 h treatment, full-dose, read-out: hGalR2 EC50
T2 construct: host or cells: HEK293
T2 sequence (O43603 1-387): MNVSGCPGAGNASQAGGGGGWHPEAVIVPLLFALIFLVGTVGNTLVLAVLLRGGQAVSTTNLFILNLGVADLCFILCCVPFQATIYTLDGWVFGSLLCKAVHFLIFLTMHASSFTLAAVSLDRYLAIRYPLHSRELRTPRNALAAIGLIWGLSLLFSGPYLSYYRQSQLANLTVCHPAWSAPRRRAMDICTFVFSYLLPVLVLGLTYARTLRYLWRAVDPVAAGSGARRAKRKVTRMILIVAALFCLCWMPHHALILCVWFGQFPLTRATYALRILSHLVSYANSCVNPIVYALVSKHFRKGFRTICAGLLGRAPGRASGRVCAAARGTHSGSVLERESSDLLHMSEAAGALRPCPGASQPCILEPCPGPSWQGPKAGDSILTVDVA

hGalR3 = biological target: T3, hGalR3 (Homo sapiens, UniProt O60755); experiment: SRE-Luc receptor activation assay, hGalR3; assay type: cell-based; settings: for hGalR3 Emax: Relative to hSPX Emax; for EC50: HEK293 cells transfected with hGalR3, Gqi, SRE-Luc, 6 h treatment, full-dose, read-out: hGalR3 EC50
T3 construct: host or cells: HEK293
T3 sequence (O60755 1-368): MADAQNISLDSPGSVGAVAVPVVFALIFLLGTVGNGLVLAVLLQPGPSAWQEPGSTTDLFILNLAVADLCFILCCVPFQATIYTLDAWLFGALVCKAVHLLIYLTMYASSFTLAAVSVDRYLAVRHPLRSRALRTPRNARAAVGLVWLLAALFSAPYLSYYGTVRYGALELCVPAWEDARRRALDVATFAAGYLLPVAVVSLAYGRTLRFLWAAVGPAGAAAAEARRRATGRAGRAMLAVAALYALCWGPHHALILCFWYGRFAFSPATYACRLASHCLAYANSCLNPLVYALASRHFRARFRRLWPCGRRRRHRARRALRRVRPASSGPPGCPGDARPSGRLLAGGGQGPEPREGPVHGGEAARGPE

[1] = In vitro serum stability assay (RP-HPLC); assay type: in vitro ADME, rat; settings: rat
Protocol: The serum stability of CSAs was tested using an in vitro assay followed by reverse-phase high-performance liquid chromatography (RP-HPLC) analysis (FIGS. 33-38).
750 μL RPMI medium 1640 (Thermo Fisher Scientific) was mixed with […] rat serum, and incubated at 37° C. for 15 min before adding peptide. The peptide dissolved in water was added into the reaction buffer to make a final concentration of 100 μg/mL. At each time point (5, 15, 30, 60, 120, 240, and 480 min), 100 μL reaction solution were taken, and mixed with 200 μL 6% trichloroacetic acid (TCA, Sigma-Aldrich). The resulting cloudy solution was cooled at 4° C. for 15 min, and centrifuged for 10 mins at 13,000 rpm. The supernatant was then analyzed by RP-HPLC. The extent of intact peptide was calculated based on the peak area and was normalized using a control sample.

[2] = system: C57BL/6J mice with high-fat-diet (HFD) induced obesity; experiment: Body weight gain in high-fat-diet induced obesity mice, LH101 (Ac) vs hSPX, 18 day treatment; assay type: in vivo; settings: for food intake: recorded every 3 days
Protocol: Female and male C57BL/6J mice weighing 22-25 g were purchased from the Laboratory Animal Services Center, The Chinese University of Hong Kong, Hong Kong. The animals were fed with rodent diet with 60 kcal % fat (Research Diets, New Brunswick, N.J.) ad libitum with free access to water and were housed in rooms maintained at 22±1° C. with a 12 h light/dark cycle (lights on 6:00-18:00). Animals were constantly acclimated to the facility until the body weight reached no less than 30 g. Then all the diet-induced obese mice were divided into 3 groups randomly for the drug treatment. Mice body weight was daily monitored, and the food intake amount was recorded every 3 days. The Animal Ethics Committee of Hong Kong Baptist University approved all experimental protocols in accordance with “Institutional Guidelines and Animal Ordinance” from Department of Health, Hong Kong Special Administrative Region.

[3] = system: male mice (C57BL/6J) with diet-induced obesity (DIO); experiment: Body weight gain in diet-induced obesity mice, LH101, 14-days-treatment; assay type: in vivo; settings: 25 μg/kg i.p., vs PBS controls
Protocol: Male mice (C57BL/6J) weighing about 22-25 g were purchased from the Laboratory Animal Services Center, The Chinese University of Hong Kong, Hong Kong. The animals were fed with a high fat diet (Research Diets, New Brunswick, N.J.) ad libitum with free access to water and were housed in rooms maintained at 22±1° C. with a 12 h light/dark cycle (lights on 6:00-18:00). Animals were constantly acclimated to the facility until the body weight reached 45-50 g. Then all the diet induced obese mice were divided into 2 groups randomly for the drug treatment. The Animal Ethics Committees of Hong Kong Baptist University, approved all experimental protocols, in accordance with “Institutional Guidelines and Animal Ordinance” from Department of Health, Hong Kong Special Administrative Region.

hGalR1 EC50 (hGalR1)	hGalR1 Emax (hGalR1)	hGalR2 Emax (hGalR2)	hGalR3 Emax (hGalR3)	half-life at 100 μg/mL ([1]; serum, serum half-life (t1/2))	half-life at 100 μg/mL ([1]; serum, half-life time in serum)	SMILES	area-under-curve (AUC) of body weight gain curve ([2]; 18 day treatment)	time after which weight gain started to wane ([2]; 18 day treatment)	food intake [2]	EC50 (hGalR2)	EC50 (hGalR3)	fold enhancement of half-life [1]	body weight gain ([2]; 25 μg/kg i.p., 18 day treatment, vs PBS controls)	remaining at 8 h, 100 μg/mL ([1]; serum)	body weight gain [3]
N.M.	N.M.	1.00	1.00	1.11 h	–	CSCC[C@H](NC(=O)[C@H](C)NC(=O)[C@H](CCC(N)=O)NC(=O)[C@@H]1CCCN1C(=O)[C@@H](NC(=O)[C@H](Cc1c[nH]c2ccccc12)NC(=O)[C@@H](N)CC(N)=O)[C@@H](C)O)C(=O)N[C@@H](CC(C)C)C(=O)N[C@@H](Cc1ccc(O)cc1)C(=O)N[C@@H](CC(C)C)C(=O)N[C@@H](CCCCN)C(=O)NCC(=O)N[C@@H](C)C(=O)N[C@@H](CCC(N)=O)C(N)=O [hSPX, reference compound]	significant body weight control efficacy	10 days	inhibitory effects on food consumption	–	–	–	–	–	–
N.M.	N.M.	0.97	1.00	32.9 h	> 24 h	CSCC[C@@H]1NC(=O)[C@H](C)NC(=O)[C@H](CCC(N)=O)NC(=O)[C@@H]2CCCN2C(=O)[C@H]([C@@H](C)O)NC(=O)[C@H](Cc2c[nH]c3ccccc23)NC(=O)[C@@H](NC(C)=O)CSSC[C@@H](C(=O)N[C@@H](CCC(N)=O)C(N)=O)NC(=O)CNC(=O)[C@H](CCCCN)NC(=O)[C@H](CC(C)C)NC(=O)[C@H](Cc2ccc(O)cc2)NC(=O)[C@H](CC(C)C)NC1=O [LH101 (Ac)] (Ac-CWTPQAMLYLKGCQ-NH2; disulfide 1-13)	significant body weight control efficacy	8 days	inhibitory effects on food consumption	0.38 µM	0.39 µM	29.1 fold	significantly suppressed the body weight gain	–	–

SMILES	hGalR1 EC50 (hGalR1)	hGalR1 Emax (hGalR1)	hGalR2 Emax (hGalR2)	hGalR3 Emax (hGalR3)	half-life at 100 μg/mL ([1]; serum, serum half-life (t1/2))	half-life at 100 μg/mL ([1]; serum, half-life time in serum)	area-under-curve (AUC) of body weight gain curve ([2]; 18 day treatment)	time after which weight gain started to wane ([2]; 18 day treatment)	food intake [2]	EC50 (hGalR2)	EC50 (hGalR3)	fold enhancement of half-life [1]	body weight gain ([2]; 25 μg/kg i.p., 18 day treatment, vs PBS controls)	remaining at 8 h, 100 μg/mL ([1]; serum)	body weight gain [3]
CSCC[C@@H]1NC(=O)[C@H](C)NC(=O)[C@H](CCC(N)=O)NC(=O)[C@@H]2CCCN2C(=O)[C@H]([C@@H](C)O)NC(=O)[C@H](Cc2c[nH]c3ccccc23)NC(=O)[C@@H](N)CSSC[C@@H](C(=O)N[C@@H](CCC(N)=O)C(N)=O)NC(=O)CNC(=O)[C@H](CCCCN)NC(=O)[C@H](CC(C)C)NC(=O)[C@H](Cc2ccc(O)cc2)NC(=O)[C@H](CC(C)C)NC1=O [LH101] (H-CWTPQAMLYLKGCQ-NH2; disulfide 1-13)	N.M.	N.M.	1.09	1.04	5.93 h	–	–	–	–	1.19 µM	1.56 µM	5.3 fold	–	46%	significantly suppressed the body weight gain; also recorded: suppressed mice body weight gain; also recorded: does inhibit body weight gain
